Experimental data: US9006238B2, “Pyrazolo pyridine derivatives as NADPH oxidase inhibitors” (Genkyotex SA, priority 2008, dated 2015)

Biological target: T1, NOX (Homo sapiens, UniProt P04839)
T1 construct: HL60 differentiation to the neutrophil phenotype was triggered by adding Me2SO; endogenous in cells; host or cells: HL-60 cells differentiated with DMSO (1.25% v/v, 6 days) to the neutrophil phenotype
T1 sequence (P04839 1-570): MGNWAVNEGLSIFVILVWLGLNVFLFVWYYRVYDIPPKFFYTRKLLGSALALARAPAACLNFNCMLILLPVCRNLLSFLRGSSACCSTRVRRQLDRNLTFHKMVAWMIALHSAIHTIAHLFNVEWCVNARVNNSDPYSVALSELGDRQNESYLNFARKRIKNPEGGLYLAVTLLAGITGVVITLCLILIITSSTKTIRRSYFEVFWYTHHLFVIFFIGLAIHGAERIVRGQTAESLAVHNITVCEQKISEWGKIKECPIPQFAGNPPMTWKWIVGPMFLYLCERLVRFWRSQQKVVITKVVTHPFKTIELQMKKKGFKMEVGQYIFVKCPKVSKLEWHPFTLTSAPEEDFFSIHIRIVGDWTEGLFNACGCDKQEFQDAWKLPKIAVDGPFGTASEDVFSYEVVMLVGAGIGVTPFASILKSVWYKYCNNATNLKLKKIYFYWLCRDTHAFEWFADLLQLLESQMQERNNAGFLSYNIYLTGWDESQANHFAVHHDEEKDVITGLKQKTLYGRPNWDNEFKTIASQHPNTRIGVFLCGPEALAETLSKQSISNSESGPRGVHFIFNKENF
T1 sequence (P13498 1-195 partner): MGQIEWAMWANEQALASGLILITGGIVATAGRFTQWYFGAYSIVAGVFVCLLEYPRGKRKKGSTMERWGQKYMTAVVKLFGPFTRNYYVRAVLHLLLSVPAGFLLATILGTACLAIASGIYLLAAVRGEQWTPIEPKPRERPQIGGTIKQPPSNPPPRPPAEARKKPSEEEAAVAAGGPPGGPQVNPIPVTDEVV
Test: Amplex Red measurement of extracellular hydrogen peroxide (NOX activity) using DMSO-differentiated HL60 cells
Assay type: cell-based
Settings: DMSO-differentiated HL60 cells; for Inhibition (%) of NOX activity: test concentration not given
Description: The activity of the compounds according to the invention may be tested for their activity in the inhibition or reduction of formation of reactive oxygen species (ROS) from oxygen in cells. The activity of the compounds is tested in the following cell cultures by different techniques such as nitroblue tetrazolium, Amplex Red, Chemiluminescence (Luminol) and 2′,7′-dichlorodihydrofluorescein diacetate (H2DCF-DA) according to the protocols detailed below.
Human acute myeloid leukemia cell line HL-60 was cultured in RPMI 1640 (Invitrogen) supplemented with 10% heat-inactivated calf serum, 2 mM glutamine, 100 U/mL penicillin (Sigma), and 100 μg streptomycin (Sigma) at 37° C. under a humidified atmosphere of 5% CO2. HL60 differentiation to the neutrophil phenotype was triggered by adding Me2SO (final concentration 1.25% v/v for 6 days) to the culture medium.
Extracellular hydrogen peroxide was measured using Amplex UltraRed (Molecular Probes). Cells were trypsinized (1× Trypsin-EDTA), collected by centrifugation, and resuspended in HBSS supplemented with 1% glucose. Cells were seeded into black 96-well plates at a density of 50,000 cells in 200 μl testing buffer (HBSS 1% glucose containing 0.005 U/mL horseradish peroxidase (Roche) and 50 μM Amplex Red in the presence or absence of compounds according to the invention. As a control, DPI was included at a final concentration of 10 μM The plates were placed in the fluorescent Optima Fluorescent plate reader and kept at 37° C. during 20 min. Fluorescence was measured for […] with excitation and emission wavelengths of 544 nm and 590 nm respectively. NOX activities were expressed as % of the activity in control cells. Residual activity of DPI-treated cells was usually <10%.
The Table 2 below summarizes the percentage of inhibition of NOX activity as measured by Amplex Red using DMSO-differentiated HL60 cells as described above:
The Table 3 below summarizes the IC50 of NOX activity as measured by Amplex Red using DMSO-differentiated HL60 cells as described above: […]

Row | Structure (SMILES) | IC50 | Inhibition (%) of NOX activity
1 | COCCn1[nH]c2cc(=O)n(C)c(-c3ccc(Cl)cc3)c2c1=O [Compound 77, 4-(4-chlorophenyl)-2-(2-methoxyethyl)-5-methyl-1H-pyrazolo[4,3-c]pyridine-3,6 (2H,5H)-dione] | < 5 µM | 90%
2 | Cn1c(COc2ccc(F)cc2)c2c(=O)n(CCN3CCOCC3)[nH]c2cc1=O [Compound 86, 4-[(4-fluorophenoxy)methyl]-5-methyl-2-(2-morpholin-4-ylethyl)-1H-pyrazolo[4,3-c] pyridine-3,6(2H,5H)-dione] | < 5 µM | 87%
3 | Cc1c2c(=O)n(C)[nH]c2cc(=O)n1CCN1CCOCC1 [Compound 16, 2,4-Dimethyl-5-(2-Morpholin-4-Ylethyl)-1H-Pyrazolo[4,3-c]Pyridine-3,6(2H,5H)-Dione] | < 5 µM | 74%
4 | Cn1[nH]c2cc(=O)n(CC3CNC(=O)C3)c(-c3ccc(Cl)cc3)c2c1=O (stereo not drawn) [Compound 100, 4-(4-chlorophenyl)-2-methyl-5-[(5-oxopyrrolidin-3-yl)methyl]-1H-pyrazolo[4,3-c] pyridine-3,6(2H,5H)-dione] | – | 90%
5 | Cc1c2c(=O)n(Cc3ccccc3)[nH]c2cc(=O)n1Cc1ccccn1 [Compound 1, 2-Benzyl-4-Methyl-5-(Pyridin-2-Ylmethyl)-1H-Pyrazolo[4,3-c]Pyridine-3,6(2H,5H)-Dione] | < 5 µM | 67%
6 | Cn1[nH]c2cc(=O)n(CC3CN(Cc4ccccc4)CCO3)c(-c3ccc(Cl)cc3)c2c1=O (stereo not drawn) [Compound 97, 5-[(4-benzylmorpholin-2-yl)methyl]-4-(4-chlorophenyl)-2-methyl-1H-pyrazolo[4,3-c] pyridine-3,6(2H,5H)-dione] | – | 89%
7 | COCCn1[nH]c2cc(=O)n(CCc3ccccn3)c(C)c2c1=O [Compound 15, 2-(2-Methoxyethyl)-4-Methyl-5-(2-Pyridin-2-Ylethyl)-1H-Pyrazolo[4,3-c]Pyridine-3,6(2H,5H)-Dione] | < 5 µM | 72%
8 | COc1cccc(Cc2c3c(=O)n(Cc4ccccc4)[nH]c3cc(=O)n2Cc2ccccn2)c1 [Compound 21, 2-benzyl-4-(3-methoxybenzyl)-5-(pyridin-2-ylmethyl)-1H-pyrazolo[4,3-c] pyridine-3,6(2H,5H)-dione] | < 5 µM | 74%
9 | COCCn1[nH]c2cc(=O)n(-c3cccc(NC(C)=O)c3)c(C)c2c1=O [Compound 19, N-{3-[2-(2-methoxyethyl)-4-methyl-3,6-dioxo-1,2,3,6-tetrahydro-5H-pyrazolo[4,3-c]pyridin-5-yl]phenyl} acetamide] | < 5 µM | 73%
10 | Cc1c2c(=O)n(CC(C)C)[nH]c2cc(=O)n1Cc1cccnc1 [Compound 44, 4-methyl-2-(2-methylpropyl)-5-(pyridin-3-ylmethyl)-1H-pyrazolo[4,3-c]pyridine-3,6 (2H,5H)-dione] | < 5 µM | 78%
11 | Cc1c2c(=O)n(C)[nH]c2cc(=O)n1Cc1ccccn1 [Compound 4, 2,4-Dimethyl-5-(Pyridin-2-Ylmethyl)-1H-Pyrazolo[4,3-c]Pyridine-3,6(2H,5H)-Dione] | < 5 µM | 65%
12 | COCCn1[nH]c2cc(=O)n(Cc3ccccc3CN3CCOCC3)c(C)c2c1=O [Compound 18, 2-(2-methoxyethyl)-4-methyl-5-[2-(morpholin-4ylmethyl)benzyl]-1H-pyrazolo[4,3-c]pyridine-3,6(2H,5H)-dione] | < 5 µM | 75%
13 | Cc1c2c(=O)n(CCc3ccccc3)[nH]c2cc(=O)n1Cc1ccccc1CN1CCOCC1 [Compound 30, 4-methyl-5-[2-(morpholin-4-ylmethyl)benzyl]-2-(2-phenylethyl)-1H-pyrazolo[4,3-c]pyridine-3,6(2H,5H)-dione] | < 5 µM | 77%
14 | Cc1c2c(=O)n(Cc3ccccc3)[nH]c2cc(=O)n1-c1cccc(OC(F)(F)F)c1 [Compound 3, 2-Benzyl-4-Methyl-5-[3-(Trifluoromethoxy)Phenyl]-1H-Pyrazolo[4,3-c]Pyridine-3,6(2H,5H)-Dione] | < 5 µM | 63%
15 | COCCn1c(CCCOc2ccccc2)c2c(=O)n(CCN3CCOCC3)[nH]c2cc1=O [Compound 74, 5-(2-methoxyethyl)-2-(2-morpholin-4-ylethyl)-4-(3-phenoxypropyl)-1H-pyrazolo[4,3-c]pyridine-3,6 (2H,5H)-dione] | < 5 µM | 95%
16 | Cc1c2c(=O)n(Cc3ccc(Cl)cc3)[nH]c2cc(=O)n1Cc1ccccn1 [Compound 2, 2-(4-Chlorobenzyl)-4-Methyl-5-(Pyridin-2-Ylmethyl)-1H-Pyrazolo[4,3-c]Pyridine-3,6(2H,5H)-Dione] | < 5 µM | 61%
17 | Cc1c2c(=O)n(C)[nH]c2cc(=O)n1C [Compound 5, 2,4,5-Trimethyl-1H-Pyrazolo[4,3-c]Pyridine-3,6(2H,5H)-Dione] | < 5 µM | 48%
18 | O=c1c2c(COc3ccc(F)cc3)n(Cc3ccc(Cl)cc3)c(=O)cc2[nH]n1CCN1CCOCC1 [Compound 51, 5-(4-chlorobenzyl)-4-[(4-fluorophenoxy)methyl]-2-(2-morpholin-4-ylethyl)-1H-pyrazolo[4,3-c]pyridine-3,6 (2H,5H)-dione] | < 5 µM | 76%
19 | Cc1c2c(=O)n(C3CCCCC3)[nH]c2cc(=O)n1Cc1ccccc1CN1CCOCC1 [Compound 13, 2-Cyclohexyl-4-Methyl-5-[2-(Morpholin-4-Ylmethyl)Benzyl]-1H-Pyrazolo[4,3-c]Pyridine-3,6(2H,5H)-Dione] | < 5 µM | 56%
20 | CCCCc1c2c(=O)n(C)[nH]c2cc(=O)n1Cc1ccc(Cl)cc1 [Compound 8, 4-Butyl-5-(4-Chlorobenzyl)-2-Methyl-1H-Pyrazolo[4,3-c]Pyridine-3,6(2H,5H)-Dione] | < 5 µM | 79%
21 | COCCn1[nH]c2cc(=O)n(CC(=O)N3CCOCC3)c(C)c2c1=O [Compound 20] | < 5 µM | 75%
22 | Cc1c2c(=O)n(CC(C)C)[nH]c2cc(=O)n1C1CCc2ccccc21 (stereo not drawn) [Compound 48, 5-(2,3-dihydro-1H-inden-1-yl)-4-methyl-2-(2-methylpropyl)-1H-pyrazolo[4,3-c] pyridine-3,6(2H,5H)-dione] | < 5 µM | 91%
23 | Cc1c2c(=O)n(CCOc3ccc(Cl)cc3)[nH]c2cc(=O)n1Cc1ccccn1 [Compound 24, 2-[2-(4-chlorophenoxy)ethyl] 4-methyl-5-(pyridin-2-ylmethyl)-1H-pyrazolo[4,3-c] pyridine-3,6(2H,5H)-dione] | < 5 µM | 79%
24 | CC(=O)Nc1cccc(Cn2c(C)c3c(=O)n(CCc4ccccc4)[nH]c3cc2=O)c1 [Compound 28, N-(3-{[4-methyl-3,6-dioxo-2-(2-phenylethyl)-1,2,3,6-tetrahydro-5H-pyrazolo[4,3-c]pyridin-5-yl]methyl}phenyl) acetamide] | < 5 µM | 78%
25 | COCCn1[nH]c2cc(=O)n(CCOC)c(-c3ccc(Cl)cc3)c2c1=O [Compound 58, 4-(4-chlorophenyl)-2,5-bis(2-methoxyethyl)-1H-pyrazolo[4,3-c]pyridine-3,6 (2H,5H)-dione] | < 5 µM | 95%
